Holding throughout (format): biochemical
The target of one assay is human Cat K (Homo sapiens (Human), UniProt P43235). The assay can be described thus: Cathepsin enzyme inhibition assay (fluorogenic peptide substrate), Cat K. Conditions: enzyme 1 nM, substrate Z-Leu-Arg-AMC 20 μM, pH 6.5. How it is done:
(§1) Enzyme activity is measured by observing the increase in fluorescence intensity caused by cleavage of a peptide substrate containing a fluorophore whose emission is quenched in the intact peptide.
(§2) Assay buffer: 100 mM potassium phosphate pH 6.5, EDTA-Na 5 mM, Triton X-100 0.001%, DTT 5 mM.
(§3) Enzymes (all at 1 nM): human and mouse Cathepsin S, Cat K, Cat B, Cat L. Substrate (20 μM): Z-Val-Val-Arg-AMC, except for Cat K which uses Z-Leu-Arg-AMC (both from Bachem).
(§4) Excitation 360 nm, Emission 465 nm.
(§5) Enzyme is added to the substance dilutions in 96-well microtitre plates and the reaction is started with substrate. […] IC50 are calculated by standard methods. Inhibition of human Cat S, mouse Cat S, human Cat K, mouse Cat K, human Cat B, mouse Cat B, human Cat L and mouse Cat L have been measured separately.

A further assay deals with human Cathepsin S (Homo sapiens (Human), UniProt P25774). The assay can be described thus: Cathepsin enzyme inhibition assay (fluorogenic peptide substrate), Cat S. Conditions: enzyme 1 nM, substrate Z-Val-Val-Arg-AMC 20 μM, pH 6.5. How it is done: as §1, §2, §3, §4, §5
Chain of human Cathepsin S (P25774 115-331): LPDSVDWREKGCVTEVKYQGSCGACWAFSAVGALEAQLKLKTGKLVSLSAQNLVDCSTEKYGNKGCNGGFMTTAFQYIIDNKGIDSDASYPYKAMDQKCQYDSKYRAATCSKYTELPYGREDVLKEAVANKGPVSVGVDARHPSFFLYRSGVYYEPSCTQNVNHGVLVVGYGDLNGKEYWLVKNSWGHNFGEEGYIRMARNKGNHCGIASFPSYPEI
The target in another assay is human Cat B (Homo sapiens (Human), UniProt P07858). Description: Cathepsin enzyme inhibition assay (fluorogenic peptide substrate), Cat B. Conditions: enzyme 1 nM, substrate Z-Val-Val-Arg-AMC 20 μM, pH 6.5. On the procedure: as §1, §2, §3, §4, §5
The next assay concerns the target human Cat L (Homo sapiens (Human), UniProt P07711). Description: Cathepsin enzyme inhibition assay (fluorogenic peptide substrate), Cat L. As to conditions: enzyme 1 nM, substrate Z-Val-Val-Arg-AMC 20 μM, pH 6.5. How it is done: as §1, §2, §3, §4, §5

Broadly, the pIC50 is the negative decadic logarithm of the IC50, by convention in mol/L.

pIC50: −log10 of the molar value.

Chain of human Cat L (P07711 114-333): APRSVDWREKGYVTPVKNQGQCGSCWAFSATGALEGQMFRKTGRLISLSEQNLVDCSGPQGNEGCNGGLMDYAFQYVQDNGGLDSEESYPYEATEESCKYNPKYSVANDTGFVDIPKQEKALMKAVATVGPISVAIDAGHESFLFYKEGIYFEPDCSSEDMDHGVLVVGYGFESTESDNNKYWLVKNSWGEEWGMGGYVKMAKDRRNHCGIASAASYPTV
Chain of human Cat K (P43235 115-329): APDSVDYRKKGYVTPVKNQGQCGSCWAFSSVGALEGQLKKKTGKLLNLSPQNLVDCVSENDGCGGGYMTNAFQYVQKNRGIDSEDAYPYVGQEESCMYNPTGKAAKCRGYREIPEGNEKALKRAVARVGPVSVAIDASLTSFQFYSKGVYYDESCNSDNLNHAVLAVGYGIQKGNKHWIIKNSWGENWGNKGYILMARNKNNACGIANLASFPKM

For `CC[C@H](NC(=O)[C@@H]1C[C@@H](S(=O)(=O)c2ccccc2Cl)CN1C(=O)C1(c2ccc(Cl)cc2)CC1)C(=O)c1nc2ccccc2o1` [Example 12, (2S,4R)—N—((S)-1-(benzo[d]oxazol-2-yl)-1-oxobutan-2-yl)-1-(1-(4-chlorophenyl)cyclopropanecarbonyl)-4-(2-chlorophenylsulfonyl)pyrrolidine-2-carboxamide], the negative-log IC50 (pIC50) at human Cat K is 6.44; against human Cathepsin S it was 9.13; at human Cat B, 6.74; on human Cat L, 7.67.

For the compound `CC[C@H](NC(=O)[C@@H]1C[C@@H](S(=O)(=O)c2ccccc2Cl)CN1C(=O)C1(c2ccc(Cl)cc2F)CC1)C(=O)C(=O)NC1CC1` [Example 13, (2S,4R)-1-(1-(4-chloro-2-fluorophenyl)cyclopropanecarbonyl)-4-(2-chlorophenylsulfonyl)-N—((S)-1-(cyclopropylamino)-1,2-dioxopentan-3-yl)pyrrolidine-2-carboxamide], the pIC50 at human Cat K is 7.17; at human Cathepsin S, 9.15; at human Cat B, 6.85; at human Cat L, 7.95.

Regarding `CC[C@H](NC(=O)[C@@H]1C[C@@H](S(=O)(=O)c2ccccc2Cl)CN1C(=O)C1(c2ccc(Br)cc2F)CC1)C(=O)C(=O)NC1CC1` [Example 14, (2S,4R)-1-(1-(4-bromo-2-fluorophenyl)cyclopropanecarbonyl)-4-(2-chlorophenylsulfonyl)-N—((S)-1-(cyclopropylamino)-1,2-dioxopentan-3-yl)pyrrolidine-2-carboxamide], the negative-log IC50 (pIC50) at human Cat K was 7.43; on human Cathepsin S it was 9.18; on human Cat B, 6.82; at human Cat L, 7.98.

On to `CC[C@H](NC(=O)[C@@H]1C[C@@H](S(=O)(=O)c2ccccc2Cl)CN1C(=O)C1(c2ccc(Br)cc2)CC1)C(=O)C(=O)NC1CC1` [Example 15, (2S,4R)-1-(1-(4-bromophenyl)cyclopropanecarbonyl)-4-(2-chlorophenylsulfonyl)-N—((S)-1-(cyclopropylamino)-1,2-dioxopentan-3-yl)pyrrolidine-2-carboxamide], for which the pIC50 against human Cat K was 7.35; against human Cathepsin S, 9.28; at human Cat B, 7.01; against human Cat L, 8.09.

On to `CCC[C@H](NC(=O)[C@@H]1C[C@@H](S(=O)(=O)c2ccccc2Cl)CN1C(=O)C1(c2ccc(Br)cc2)CC1)C(=O)C(=O)NC1CC1` [Example 16, (2S,4R)-1-(1-(4-bromophenyl)cyclopropanecarbonyl)-4-(2-chlorophenylsulfonyl)-N—((S)-1-(cyclopropylamino)-1,2-dioxohexan-3-yl)pyrrolidine-2-carboxamide], for which the pIC50 is 7.69 against human Cat K, 9.35 on human Cathepsin S, 7.34 at human Cat B and 8.23 against human Cat L.

For `CCC[C@H](NC(=O)[C@@H]1C[C@@H](S(=O)(=O)c2ccccc2Cl)CN1C(=O)C1(c2ccc(I)cc2)CC1)C(=O)C(=O)NC1CC1` [Example 18, (2S,4R)-4-(2-chlorophenylsulfonyl)-N—((S)-1-(cyclopropylamino)-1,2-dioxohexan-3-yl)-1-(1-(4-iodophenyl)cyclopropanecarbonyl)pyrrolidine-2-carboxamide], the negative logarithm of the IC50 (pIC50) against human Cat K was 7.68; against human Cathepsin S it was 9.22; against human Cat B, 7.15; against human Cat L, 8.08.

For the compound `CC[C@H](NC(=O)[C@@H]1C[C@@H](S(=O)(=O)c2ccccc2C(F)(F)F)CN1C(=O)C1(c2ncc(Cl)cc2F)CC1)C(=O)C(=O)NC1CC1` [Example 19, (2S,4R)-1-(1-(5-chloro-3-fluoropyridin-2-yl)cyclopropanecarbonyl)-N—((S)-1-(cyclopropylamino)-1,2-dioxopentan-3-yl)-4-(2-(trifluoromethyl)phenylsulfonyl)pyrrolidine-2-carboxamide], the pIC50 at human Cat K is 6.12; against human Cathepsin S it was 9.23; against human Cat B, 6.37; against human Cat L it was 7.49.

On to `CCC[C@H](NC(=O)[C@@H]1C[C@@H](S(=O)(=O)c2ccccc2C(F)(F)F)CN1C(=O)C1(c2ncc(Cl)cc2F)CC1)C(=O)C(=O)NC1CC1` [Example 20, (2S,4R)-1-(1-(5-chloro-3-fluoropyridin-2-yl)cyclopropanecarbonyl)-N—((S)-1-(cyclopropylamino)-1,2-dioxohexan-3-yl)-4-(2-(trifluoromethyl)phenylsulfonyl)pyrrolidine-2-carboxamide], for which the pIC50 on human Cat K was 6.46; against human Cathepsin S, 9.25; at human Cat B, 6.61; against human Cat L it was 7.73.

Consider `CC[C@H](NC(=O)[C@@H]1C[C@@H](S(=O)(=O)c2ccccc2C(F)(F)F)CN1C(=O)C1(c2ccc(Cl)cc2)CC1)C(=O)C(=O)NC1CC1` [Example 21, (2S,4R)-1-(1-(4-chlorophenyl)cyclopropanecarbonyl)-N—((S)-1-(cyclopropylamino)-1,2-dioxopentan-3-yl)-4-(2-(trifluoromethyl)phenylsulfonyl)pyrrolidine-2-carboxamide], for which the pIC50 is 6.39 on human Cat K, 9.18 on human Cathepsin S, 6.78 against human Cat B and 7.54 against human Cat L.

`CCC[C@H](NC(=O)[C@@H]1C[C@@H](S(=O)(=O)c2ccccc2C(F)(F)F)CN1C(=O)C1(c2ccc(Cl)cc2)CC1)C(=O)C(=O)NC1CC1` [Example 22, (2S,4R)-1-(1-(4-chlorophenyl)cyclopropanecarbonyl)-N—((S)-1-(cyclopropylamino)-1,2-dioxohexan-3-yl)-4-(2-(trifluoromethyl)phenylsulfonyl)pyrrolidine-2-carboxamide]: the pIC50 against human Cat K was 6.39; on human Cathepsin S, 9.01; against human Cat B it was 6.84; against human Cat L, 7.58.

`CC[C@H](NC(=O)[C@@H]1C[C@@H](S(=O)(=O)c2ccccc2Cl)CN1C(=O)C1(c2ncc(Br)cc2F)CC1)C(=O)C(=O)NC1CC1` [Example 23, (2S,4R)-1-(1-(5-bromo-3-fluoropyridin-2-yl)cyclopropanecarbonyl)-4-(2-chlorophenylsulfonyl)-N—((S)-1-(cyclopropylamino)-1,2-dioxopentan-3-yl)pyrrolidine-2-carboxamide]: the pIC50 was 6.52 on human Cat K, 8.53 at human Cathepsin S, 5.91 against human Cat B and 7.38 against human Cat L.

For the compound `CCC[C@H](NC(=O)[C@@H]1C[C@@H](S(=O)(=O)c2ccccc2Cl)CN1C(=O)C1(c2ncc(Cl)cc2F)CC1)C(=O)C(=O)NC1CC1` [Example 24, (2S,4R)-1-(1-(5-chloro-3-fluoropyridin-2-yl)cyclopropanecarbonyl)-4-(2-chlorophenylsulfonyl)-N—((S)-1-(cyclopropylamino)-1,2-dioxohexan-3-yl)pyrrolidine-2-carboxamide], the pIC50 was 7.14 against human Cat K, 9.26 against human Cathepsin S, 6.72 at human Cat B and 7.97 at human Cat L.

For `CC[C@H](NC(=O)[C@@H]1C[C@@H](S(=O)(=O)c2ccccc2Cl)CN1C(=O)C1(c2ncc(Cl)cc2F)CC1)C(=O)C(=O)NC1CC1` [Example 25, (2S,4R)-1-(1-(5-chloro-3-fluoropyridin-2-yl)cyclopropanecarbonyl)-4-(2-chlorophenylsulfonyl)-N—((S)-1-(cyclopropylamino)-1,2-dioxopentan-3-yl)pyrrolidine-2-carboxamide], the pIC50 was 7.01 on human Cat K, 9.39 against human Cathepsin S, 6.60 against human Cat B and 8.01 at human Cat L.

Turning to `CC(C)(NC(=O)[C@@H]1C[C@@H](S(=O)(=O)c2ccccc2Cl)CN1C(=O)C1(c2ccc(Cl)cc2)CC1)C(=O)C(=O)NC1CC1` [Example 26, (2S,4R)-1-(1-(4-chlorophenyl)cyclopropanecarbonyl)-4-(2-chlorophenylsulfonyl)-N-(4-(cyclopropylamino)-2-methyl-3,4-dioxobutan-2-yl)pyrrolidine-2-carboxamide], the pIC50 at human Cat K is 4.60; at human Cathepsin S, 7.98; against human Cat B it was 4.60; at human Cat L it was 5.51.

As to `O=C(NC1CC1)C(=O)C1(NC(=O)[C@@H]2C[C@@H](S(=O)(=O)c3ccccc3Cl)CN2C(=O)C2(c3ccc(Cl)cc3)CC2)CC1` [Example 27, (2S,4R)-1-(1-(4-chlorophenyl)cyclopropanecarbonyl)-4-(2-chlorophenylsulfonyl)-N-(1-(2-(cyclopropylamino)-2-oxoacetyl)cyclopropyl)pyrrolidine-2-carboxamide], the pIC50 was 4.60 against human Cat K, 7.75 against human Cathepsin S, 4.60 against human Cat B and 5.17 on human Cat L.

For `CC(C)C[C@H](NC(=O)[C@@H]1C[C@@H](S(=O)(=O)c2ccccc2Cl)CN1C(=O)C1(c2ccc(Cl)cc2)CC1)C(=O)C(=O)NC1CC1` [Example 29, (2S,4R)-1-(1-(4-chlorophenyl)cyclopropanecarbonyl)-4-(2-chlorophenylsulfonyl)-N—((S)-1-(cyclopropylamino)-5-methyl-1,2-dioxohexan-3-yl)pyrrolidine-2-carboxamide], the pIC50 against human Cat K is 7.16; at human Cathepsin S, 8.90; against human Cat B it was 6.75; at human Cat L, 7.74.

The values above are taken from US8729061B2, “Pyrrolidine derivatives” (Hoffmann-La Roche Inc., priority 2011, dated 2014).
